Consider 3 compounds from patent US12497642B2, “Incorporation of unnatural nucleotides and methods of use in vivo thereof” (THE SCRIPPS RESEARCH INSTITUTE, priority 2017, dated 2025).

Test [1] has as its system semi-synthetic organism (SSO) (strain YZ3). Briefly: Replication and UBP retention in vivo in the semi-synthetic organism (streptavidin biotin shift, PAGE), Example 1. It counts as cell-based, Escherichia coli. As to conditions: for UBP retention: context 1, dNaMTP 125 μM; for UBP retention in vivo, in words: dTPT3TP analog paired with dNaMTP, discussion. The protocol:
All bacteria were cultured in 100 μL of liquid 2×YT media (casein peptone 16 g/L, yeast extract 10 g/L, NaCl 5 g/L) supplemented with potassium phosphate (50 mM, pH 7) in 96-well microwell plates. When noted, antibiotics were used at the following concentrations: chloramphenicol, 5 μg/mL; ampicillin, 100 μg/mL. Cell growth, indicated as OD600, was measured using a Perkin Elmer EnVision 2103 Multilabel Reader with a 590/20 nm filter. Unless otherwise stated, molecular biology reagents were purchased from New England Biolabs (Ipswich, MA) and were used according to the manufacturer's protocols. As necessary, purification of nucleic acids was accomplished by micro-elution columns (Zymo Research Corp; Irvine, CA). All natural oligonucleotides were purchased from IDT (San Diego, CA), and oligonucleotides containing dNaM were synthesized by Biosearch Technologies (Petaluma, CA) with purification by reverse phase cartridge. Unnatural nucleotide triphosphates were prepared, and confirmed by MALDI-TOF and UV/Vis.
Plasmids containing the dNaM-dTPT3 UBP were prepared and used to transform the semi-synthetic organism (SSO). To create a template for in vivo replication assays, Golden Gate assembly was used to construct a derivative of the pUC19 plasmid in which a single dNaM-dTPT3 UBP was embedded within the TK1 sequence ([…]; […]), a context within which the UBP is well replicated in the SSO. Plasmids were then used to transform the SSO (strain YZ3). Following transformation, the SSO was allowed to recover at 37° C. for 1 h in media containing dNaMTP (125 μM) and dTPT3TP (25 μM). Cells were pelleted by centrifugation, resuspended in fresh media lacking unnatural triphosphates, split into 100-μL aliquots and then used to inoculate cultures containing different pairs of unnatural triphosphates at the specified concentrations. When the cell density reached an OD600 of ˜0.7, cells were pelleted and plasmids were recovered and PCR amplified with d5SICSTP and a biotinylated analog of dNaMTP, and UBP retention was determined by comparing the intensity of the streptavidin shifted and unshifted bands via PAGE.

Test [2] can be described thus: PCR amplification in vitro (SAR named in the discussion). It counts as biochemical. Particulars: paired with any analog.

Turning to `O=c1c2cccnc2ccn1C1CC(O)C(COP(=O)(O)OP(=O)(O)OP(=O)(O)O)O1` (stereo not drawn) [dNICS], the UBP retention result in test [1] (dTPT3TP analog 125 μM) was “significant UBP retention”. The “UBP retention in vivo, in words” value in test [1] is reported as “supports UBP retention reasonably well”; in test [1] (listed as dNICSTP), “reasonable retention in vivo”. In addition, the PCR amplification result in test [2] was “do not support PCR amplification”.
For the compound `Cc1ccc2c(=O)n(C3CC(O)C(COP(=O)(O)OP(=O)(O)OP(=O)(O)O)O3)ccc2c1` (stereo not drawn) [d5MICSTP], in test [1] (dTPT3TP analog 10 μM), the UBP retention result is “significant retention”. For the same compound, the “UBP retention in vivo, in words” value is reported as “reasonable retention in vivo” in test [1] and “reasonably well, but only at low concentration” in test [1] (listed as d5MICS). Further, the PCR amplification result in test [2] was “do not support PCR amplification”.
Consider `O=c1c2ccccc2ccn1C1CC(O)C(COP(=O)(O)OP(=O)(O)OP(=O)(O)O)O1` (stereo not drawn) [dICSTP], for which the UBP retention result in test [1] (dTPT3TP analog 10 μM) is “significant retention”. Further, the “UBP retention in vivo, in words” value in test [1] is “reasonable retention in vivo”; in test [1] (listed as dICS) it was “reasonably well, but only at low concentration”. In addition, the PCR amplification entry in test [2] is recorded as “do not support PCR amplification”.
